Results: patent US20170152239A1, “BENZAMIDE AND HETEROBENZAMIDE COMPOUNDS” (PFIZER INC., priority 2012, published 2017)

Target: WT EZH2 (EZH2 4 protein complex: EZH2, EED, SUZ12, RbAp48) (Homo sapiens, UniProt O75530+Q09028+Q15022+Q15910)
Assay: WT EZH2 nucleosome assay
Assay type: biochemical
Conditions: nucleosome assay, 5 nM EZH2 4-protein complex, 1.5 μM SAM; read-out: WT EZH2 IC50
Protocol: Nucleosome Assay Protocol:
A. Compound preparation • 1. Prepare 10 mM stock solutions in 100% DMSO from solid material • 2. Serial dilute 10 mM compound stocks either 2 or 3-fold in 100% DMSO to generate compounds for 11 point dose response
B. Reagent preparation • 1. Prepare 1× assay buffer containing 100 mM Tris pH 8.5, 4 mM DTT and 0.01% Tween-20 • 2. Dilute purified HeLA oligonucleosomes and recombinant histone H1 (New England Biolabs) in assay buffer to 1.67×. • 3. Dilute EZH2 4 protein complex (EZH2, EED, SUZ12, RbAp48) to 3.5× in assay buffer • 4. Prepare 10×^3H SAM solution in assay buffer using 0.94 μCi/well of radioactive SAM (Perkin Elmer) and sufficient non-labeled SAM (Sigma) for 1.5 μM final concentration. • 5. Dilute TCA to 20% in DI water
C. Enzyme reaction • 1. Final reaction conditions are 5 nM EZH2 4-protein complex, 1.5 μM SAM, 25 μg/mL oligonucleosomes, 50 nM rH1 in a 50 μl reaction volume. • 2. Add 1 μl of diluted compound to the assay plate (96-well V-bottom polypropylene plates) or 1 μl of DMSO for control wells. • 3. Add 30 μl of nucleosomes to the assay plate • 4. Add 14 μl of EZH2 4 protein complex to the assay plate • 5. Add 5 μl of ^3H SAM to start the reaction. • 6. Stop the reaction after 60 minutes with the addition of 100 μl of 20% TCA • 7. Transfer 150 μl of quenched reaction into a prepared filterplate (Millipore #MSIPN4B10) • 8. Apply vacuum to the filterplate to filter the reaction mix through the membrane. • 9. Wash the filterplate with 8×200 μl of PBS, blot dry and dry in an oven for 30 minutes • 10. Add 50 μl of microscint-20 scintillation fluid (Perkin Elmer) to each well, wait 30 minutes and count on a liquid scintillation counter.
D. Data analysis • 1. IC50 values were determined by fitting the data to a 4-parameter IC50 equation using proprietary curve fitting software.
Wild type (WT) EZH2% Effect at 20 μM and IC50 values (μM) generated in WT EZH2 or EZH2PRC2 mutant Y641N nucleosome assays are provided in Table 3 below. A blank entry in the table indicates the data was not generated in that assay.

Sequence of WT EZH2 (EZH2 4 protein complex: EZH2, EED, SUZ12, RbAp48) (Q15910 whole entry): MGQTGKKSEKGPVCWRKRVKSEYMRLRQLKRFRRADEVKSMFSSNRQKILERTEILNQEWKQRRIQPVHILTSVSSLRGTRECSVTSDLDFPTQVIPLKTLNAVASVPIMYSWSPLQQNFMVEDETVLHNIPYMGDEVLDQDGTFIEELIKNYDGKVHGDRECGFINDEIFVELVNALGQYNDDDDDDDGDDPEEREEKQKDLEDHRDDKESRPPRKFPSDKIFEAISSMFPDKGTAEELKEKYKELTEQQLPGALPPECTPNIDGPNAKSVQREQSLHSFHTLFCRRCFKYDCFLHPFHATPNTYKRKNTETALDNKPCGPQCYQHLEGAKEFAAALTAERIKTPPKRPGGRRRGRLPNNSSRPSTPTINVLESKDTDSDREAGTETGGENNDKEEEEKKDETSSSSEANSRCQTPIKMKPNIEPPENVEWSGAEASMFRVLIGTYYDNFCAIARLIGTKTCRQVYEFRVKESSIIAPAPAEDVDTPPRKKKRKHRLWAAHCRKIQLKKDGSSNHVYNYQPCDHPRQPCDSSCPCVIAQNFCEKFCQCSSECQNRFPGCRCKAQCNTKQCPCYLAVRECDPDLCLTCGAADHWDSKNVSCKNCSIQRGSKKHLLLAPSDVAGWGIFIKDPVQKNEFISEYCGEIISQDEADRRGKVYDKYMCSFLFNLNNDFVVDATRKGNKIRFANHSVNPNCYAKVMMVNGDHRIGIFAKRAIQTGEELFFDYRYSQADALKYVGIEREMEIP
Sequence of WT EZH2 (EZH2 4 protein complex: EZH2, EED, SUZ12, RbAp48) (O75530 whole entry partner): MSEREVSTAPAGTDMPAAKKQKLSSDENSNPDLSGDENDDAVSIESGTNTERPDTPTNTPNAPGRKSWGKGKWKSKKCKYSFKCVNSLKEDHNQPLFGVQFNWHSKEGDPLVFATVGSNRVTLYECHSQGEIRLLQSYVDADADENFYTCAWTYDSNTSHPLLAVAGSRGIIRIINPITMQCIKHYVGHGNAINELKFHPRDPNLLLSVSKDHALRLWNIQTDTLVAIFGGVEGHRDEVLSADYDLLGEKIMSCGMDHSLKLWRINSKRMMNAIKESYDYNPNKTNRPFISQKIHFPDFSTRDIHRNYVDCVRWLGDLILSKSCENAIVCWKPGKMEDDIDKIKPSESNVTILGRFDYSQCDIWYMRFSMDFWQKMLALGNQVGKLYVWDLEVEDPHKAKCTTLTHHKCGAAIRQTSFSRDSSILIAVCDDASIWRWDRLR
Sequence of WT EZH2 (EZH2 4 protein complex: EZH2, EED, SUZ12, RbAp48) (Q15022 whole entry partner): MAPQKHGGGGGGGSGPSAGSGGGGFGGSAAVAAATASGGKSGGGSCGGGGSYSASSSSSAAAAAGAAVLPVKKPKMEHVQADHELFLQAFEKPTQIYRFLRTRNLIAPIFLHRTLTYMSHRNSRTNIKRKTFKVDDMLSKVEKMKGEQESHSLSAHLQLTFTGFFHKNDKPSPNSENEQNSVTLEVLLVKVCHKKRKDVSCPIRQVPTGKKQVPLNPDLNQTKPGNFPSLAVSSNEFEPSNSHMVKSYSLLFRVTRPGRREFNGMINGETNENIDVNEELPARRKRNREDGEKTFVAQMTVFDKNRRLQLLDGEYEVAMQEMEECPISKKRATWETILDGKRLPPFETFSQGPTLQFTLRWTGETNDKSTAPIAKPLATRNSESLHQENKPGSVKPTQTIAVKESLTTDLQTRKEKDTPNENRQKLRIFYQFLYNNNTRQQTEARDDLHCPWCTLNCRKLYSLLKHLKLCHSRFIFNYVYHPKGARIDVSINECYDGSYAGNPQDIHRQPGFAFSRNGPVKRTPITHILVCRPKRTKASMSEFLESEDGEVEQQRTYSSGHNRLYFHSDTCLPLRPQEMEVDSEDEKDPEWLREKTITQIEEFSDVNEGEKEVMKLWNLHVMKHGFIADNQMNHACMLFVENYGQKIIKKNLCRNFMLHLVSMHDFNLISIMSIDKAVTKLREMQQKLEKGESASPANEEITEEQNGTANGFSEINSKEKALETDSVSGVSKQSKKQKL
Sequence of WT EZH2 (EZH2 4 protein complex: EZH2, EED, SUZ12, RbAp48) (Q09028 whole entry partner): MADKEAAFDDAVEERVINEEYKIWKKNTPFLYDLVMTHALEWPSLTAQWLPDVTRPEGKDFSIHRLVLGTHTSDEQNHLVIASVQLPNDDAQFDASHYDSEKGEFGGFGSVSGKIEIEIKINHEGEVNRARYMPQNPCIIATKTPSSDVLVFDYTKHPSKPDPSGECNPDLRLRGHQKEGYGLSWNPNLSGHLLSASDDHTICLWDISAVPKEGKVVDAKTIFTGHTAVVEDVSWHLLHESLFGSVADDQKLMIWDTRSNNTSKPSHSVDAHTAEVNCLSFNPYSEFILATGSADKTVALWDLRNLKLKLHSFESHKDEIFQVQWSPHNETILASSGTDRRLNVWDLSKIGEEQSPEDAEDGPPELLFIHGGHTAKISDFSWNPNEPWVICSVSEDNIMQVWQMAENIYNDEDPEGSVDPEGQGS

| Compound | IC50 [µM] |
| --- | --- |
| CCOc1nc(C(=O)NCc2c(C)cc(C)[nH]c2=O)c(C)c(-c2ccnn2C)n1 [Example 102, N-[(4,6-dimethyl-2-oxo-1,2-dihydropyridin-3-yl)methyl]-2-ethoxy-5-methyl-6-(1-methyl-1H-pyrazol-5-yl)pyrimidine-4-carboxamide] | 18.6 |
| Cc1cc(C)c(CNC(=O)c2cc(Cl)cc(-n3c(C)cnc3C)c2C)c(=O)[nH]1 [Example 28, 5-chloro-3-(2,5-dimethyl-1H-imidazol-1-yl)-N-[(4,6-dimethyl-2-oxo-1,2-dihydropyridin-3-yl)methyl]-2-methylbenzamide] | 0.26 |
| Cc1cc(C)c(CNC(=O)c2cccc(-c3c(F)cnn3C)c2C)c(=O)[nH]1 [Example 11, N-[(4,6-dimethyl-2-oxo-1,2-dihydropyridin-3-yl)methyl]-3-(4-fluoro-1-methyl-1H-pyrazol-5-yl)-2-methylbenzamide] | 0.36 |
| Cc1cc(C)c(CNC(=O)c2nc(OCCN3CC[C@@H](F)C3)nc(-c3ccnn3C)c2C)c(=O)[nH]1 [Example 103, N-[(4,6-dimethyl-2-oxo-1,2-dihydropyridin-3-yl)methyl]-2-{2-[(3R)-3-fluoropyrrolidin-1-yl]ethoxy}-5-methyl-6-(1-methyl-1H-pyrazol-5-yl)pyrimidine-4-carboxamide] | 19.1 |
| Cc1cc(C)c(CNC(=O)c2ccnc(-c3ccnn3C)c2Cl)c(=O)[nH]1 [Example 91, 3-chloro-N-[(4,6-dimethyl-2-oxo-1,2-dihydropyridin-3-yl)methyl]-2-(1-methyl-1H-pyrazol-5-yl)isonicotin-amide] | 12.1 |
| COC1CCN(c2nc(C(=O)NCc3c(C)cc(C)[nH]c3=O)c(C)c(-c3ccnn3C)n2)CC1 [Example 68, N-[(4,6-dimethyl-2-oxo-1,2-dihydropyridin-3-yl)methyl]-2-(4-methoxypiperi-din-1-yl)-5-methyl-6-(1-methyl-1H-pyrazol-5-yl)pyrimidine-4-carboxamide] | 5.19 |
| Cc1cc(C)c(CNC(=O)c2nc(C3CC3)nc(-c3ccnn3C)c2C)c(=O)[nH]1 [Example 94, 2-cyclopropyl-N-[(4,6-dimethyl-2-oxo-1,2-dihydropyridin-3-yl)methyl]-5-methyl-6-(1-methyl-1H-pyrazol-5-yl)pyrimidine-4-carboxamide] | 16 |
| Cc1cc(C)c(CNC(=O)c2nc(OCc3cncnc3)nc(-c3ccnn3C)c2C)c(=O)[nH]1 [Example 74, N-[(4,6-dimethyl-2-oxo-1,2-dihydropyridin-3-yl)methyl]-5-methyl-6-(1-methyl-1H-pyrazol-5-yl)-2-(pyrimidin-5-ylmethoxy)pyri-midine-4-carboxamide] | 6.61 |
| Cc1cc(C)c(CNC(=O)c2ncnc(N3CCOC[C@@H]3C)c2C)c(=O)[nH]1 [Example 75, N-[(4,6-dimethyl-2-oxo-1,2-dihydropyridin-3-yl)methyl]-5-methyl-6-[(3S)-3-methylmorph-olin-4-yl]pyrimidine-4-carboxamide] | 6.78 |
| Cc1cc(C)c(CNC(=O)c2nc(OC(C)C)nc(-c3ccnn3C)c2C)c(=O)[nH]1 [Example 100, N-[(4,6-dimethyl-2-oxo-1,2-dihydropyridin-3-yl)methyl]-2-isopropoxy-5-methyl-6-(1-methyl-1H-pyrazol-5-yl)pyrimidine-4-carboxamide] | 17.6 |
| Cc1cc(C)c(CNC(=O)c2cc(-c3ccc(N)nc3)cc(-c3ccnn3C)c2C)c(=O)[nH]1 [Example 19, 5-(6-aminopyridin-3-yl)-N-[(4,6-dimethyl-2-oxo-1,2-dihydropyridin-3-yl)methyl]-2-methyl-3-(1-methyl-1H-pyrazol-5-yl)benzamide] | 0.041 |
| COCC1CCN(c2ncnc(C(=O)NCc3c(C)cc(C)[nH]c3=O)c2C)C1 (centres unmarked) [Example 132, N-[(4,6-dimethyl-2-oxo-1,2-dihydropyridin-3-yl)methyl]-6-[3-(methoxymeth-yl)pyrrolidin-1-yl]-5-methylpyrimidine-4-carboxamide] | 81.4 |
| Cc1cc(C)c(CNC(=O)c2ccnc(N3CCC[C@@H]3C)c2Cl)c(=O)[nH]1 [Example 69, 3-chloro-N-[(4,6-dimethyl-2-oxo-1,2-dihydropyridin-3-yl)methyl]-2-[(2S)-2-methylpyrroli-din-1-yl]isonicotinamide] | 5.19 |
| COc1ncc(-c2cc(C(=O)NCc3c(C)cc(C)[nH]c3=O)c(C)c(-c3c(C)cnn3C)c2)cn1 [Example 25, N-[(4,6-dimethyl-2-oxo-1,2-dihydropyridin-3-yl)methyl]-3-(1,4-dimethyl-1H-pyrazol-5-yl)-5-(2-methoxypyrimidin-5-yl)-2-methylbenzamide] | 0.16 |
| Cc1[nH]c(=O)c(CNC(=O)c2cc(Cl)cc(-c3ccnn3C)c2C)c2c1CCCC2 [Example 84, 5-chloro-2-methyl-N-[(1-methyl-3-oxo-2,3,5,6,7,8-hexahydroiso-quinolin-4-yl)methyl]-3-(1-methyl-1H-pyrazol-5-yl)benzamide] | 8.14 |
| Cc1cc(C)c(CNC(=O)c2cc(Cl)cc(-n3c(C)nnc3C)c2C)c(=O)[nH]1 [Example 62, 5-chloro-N-[(4,6-dimethyl-2-oxo-1,2-dihydropyridin-3-yl)methyl]-3-(3,5-dimethyl-4H-1,2,4-triazol-4-yl)-2-methylbenz-amide] | 4.22 |
| Cc1cc(C)c(CNC(=O)c2ncnc(N3CCC[C@@H]3c3ccccn3)c2C)c(=O)[nH]1 [Example 144, N-[(4,6-dimethyl-2-oxo-1,2-dihydropyridin-3-yl)methyl]-5-methyl-6-[(2R)-2-pyridin-2-ylpyrrolidin-1-yl]pyrimidine-4-carboxamide] | > 200 |
| Cc1cc(C(F)(F)F)[nH]c(=O)c1CNC(=O)c1cc(Cl)cc(-c2ccnn2C)c1C [Example 142, 5-chloro-2-methyl-N-{[4-methyl-2-oxo-6-(trifluoromethyl)-1,2-dihydropyridin-3-yl]methyl}-3-(1-methyl-1H-pyrazol-5-yl)benzamide] | > 200 |
| Cc1cc(C)c(CNC(=O)c2ncnc(N3CCCC3(C)C)c2C)c(=O)[nH]1 [Example 59, N-[(4,6-dimethyl-2-oxo-1,2-dihydropyridin-3-yl)methyl]-6-(2,2-dimethylpyrroli-din-1-yl)-5-methylpyrimidine-4-carboxamide] | 3.91 |
| Cc1cc(C)c(CNC(=O)c2ncnc(N3CCC[C@@H]3CO)c2C)c(=O)[nH]1 [Example 133, N-[(4,6-dimethyl-2-oxo-1,2-dihydropyridin-3-yl)methyl]-6-[(2R)-2-(hydroxymeth-yl)pyrrolidin-1-yl]-5-methylpyrimidine-4-carboxamide] | 87.5 |
| Cc1cc(C)c(CNC(=O)c2nc(N3[C@@H]4CC[C@H]3COC4)nc(N3CCC[C@@H]3C)c2C)c(=O)[nH]1 [Example 55, N-[(4,6-dimethyl-2-oxo-1,2-dihydropyridin-3-yl)methyl]-5-methyl-6-[(2S)-2 - methylpyrrolidin-1-yl]-2-[(1R,5S)-3-oxa-8-azabicyclo[3.2.1]oct-8-yl]pyrimidine-4-carboxamide] | 2.89 |
| Cc1cc(C)c(CNC(=O)c2nc(-c3ccc(N)nc3)nc(-c3ccnn3C)c2C)c(=O)[nH]1 [Example 34, 2-(6-aminopyridin-3-yl)-N-[(4,6-dimethyl-2-oxo-1,2-dihydropyridin-3-yl)methyl]-5-methyl-6-(1-methyl-1H-pyrazol-5-yl)pyrimidine-4-carboxamide] | 0.94 |
| Cc1cc(C)c(CNC(=O)c2cccc(-c3c(C)nn(C)c3C)c2C)c(=O)[nH]1 [Example 70, N-[(4,6-dimethyl-2-oxo-1,2-dihydropyridin-3-yl)methyl]-2-methyl-3-(1,3,5-trimethyl-1H-pyrazol-4-yl)benzamide] | 5.21 |
| Cc1cc(C)c(CNC(=O)c2cc(F)cc(-c3c(C)cnn3C)c2C)c(=O)[nH]1 [Example 38, N-[(4,6-dimethyl-2-oxo-1,2-dihydropyridin-3-yl)methyl]-3-(1,4-dimethyl-1H-pyrazol-5-yl)-5-fluoro-2-methylbenz-amide] | 0.71 |
| Cc1cc(C)c(CNC(=O)c2ncnc(N3CCOCC3)c2C)c(=O)[nH]1 [Example 123, N-[(4,6-dimethyl-2-oxo-1,2-dihydropyridin-3-yl)methyl]-5-methyl-6-morpholin-4-ylpyrimidine-4-carboxamide] | 44.4 |
| Cc1cc(C)c(CNC(=O)c2cc(Cl)cc(-n3nccc3C)c2C)c(=O)[nH]1 [Example 63, 5-chloro-N-[(4,6-dimethyl-2-oxo-1,2-dihydropyridin-3-yl)methyl]-2-methyl-3-(5-methyl-1H-pyrazol-1-yl)benzamide] | 4.38 |
